The source of these data is patent US12662451B2, “Chemical compounds and uses thereof” (GLAXOSMITHKLINE INTELLECTUAL PROPERTY (NO.4) LIMITED, priority 2023, dated 2026).

Like-named read-outs stand apart in the source and are kept apart here.

Data set [1] concerns SW48 human colorectal cancer cells (MSI-H cancer cells). Nature of the data set: SW48 cell viability, CellTiter-Glo, 120 hours (Example B). Particulars: for CC50: Homo sapiens. On the technique in general: ATP-based viability assays read luminescence as a measure of living cells.
Data set [2] deals with SW48 human colorectal cancer cells. Nature of the data set: Calculated free drug potency in SW48 cell assay, corrected with media free fraction (Example C). It counts as cell-based. As to conditions: Homo sapiens, SW48, SW48 pCC50 corrected with measured free fraction in cell assay media. The essentials: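 Free drug potency derives from correcting SW48 assay concentrations with the unbound fraction in medium. That fraction came from RED against pH 7.4 PBS, 1 μM nominal compound, 4 h at 37 °C, quantified by LC-MS/MS peak area ratios at T=240 versus T=0 min.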

The target in data set [3] is T1, recombinant full-length WRN protein (1-1432) (Homo sapiens, UniProt Q14191).
T1 construct: recombinant full-length WRN protein (1-1432)
The data set can be described thus: WRN unwinding activity, fluorogenic 384-well assay (Example A). Particulars: WRN unwinding activity, 4 hr; Table 2; read-out: 4 hr UNW pIC50 (converted). It counts as biochemical. The method in brief: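 Read-out is end-point unwinding of a fluorophore/quencher duplex (ex 525, em 598 nm) after 60 min with 200 μM ATP and 12 nM DNA (2× stocks), EDTA stop. Compound first sat 4 h with 200 pM WRN (2× stock) in pH 8.0 Tris buffer; four-parameter fit gives pIC50.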

Data set [4] is described as follows: Cell culture media unbound percentage and stability by rapid equilibrium dialysis (Example C). It counts as in vitro ADME. As to conditions: bovine, cell assay medium (RPMI-1640 with 10% fetal bovine serum), pH 7.4, rapid equilibrium dialysis, 4 hours at 37° C., read-out: Cell Culture Media Binding (% unbound). The essentials:
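Percent unbound in cell assay medium came from the LC-MS/MS receiver:donor peak area ratio, with stability taken as the 240 min over 0 min ratio. Set-up: 1 μM nominal compound in medium dialysed against pH 7.4 PBS (100 mM phosphate, 150 mM NaCl), 4 h, 37° C, shaken, in triplicate.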
In general terms: In equilibrium dialysis only unbound substance equilibrates across the membrane.

[5] abbreviates: SW48, 120 h, read-out: SW48 pCC50, SW48 cell viability, 120 hours incubation (converted), Table 2.
Setting [6] is: SW48, read-out: SW48 pCC50, measured potency from Example B, as repeated in Table 3 (converted).

T1 sequence (Q14191 whole entry): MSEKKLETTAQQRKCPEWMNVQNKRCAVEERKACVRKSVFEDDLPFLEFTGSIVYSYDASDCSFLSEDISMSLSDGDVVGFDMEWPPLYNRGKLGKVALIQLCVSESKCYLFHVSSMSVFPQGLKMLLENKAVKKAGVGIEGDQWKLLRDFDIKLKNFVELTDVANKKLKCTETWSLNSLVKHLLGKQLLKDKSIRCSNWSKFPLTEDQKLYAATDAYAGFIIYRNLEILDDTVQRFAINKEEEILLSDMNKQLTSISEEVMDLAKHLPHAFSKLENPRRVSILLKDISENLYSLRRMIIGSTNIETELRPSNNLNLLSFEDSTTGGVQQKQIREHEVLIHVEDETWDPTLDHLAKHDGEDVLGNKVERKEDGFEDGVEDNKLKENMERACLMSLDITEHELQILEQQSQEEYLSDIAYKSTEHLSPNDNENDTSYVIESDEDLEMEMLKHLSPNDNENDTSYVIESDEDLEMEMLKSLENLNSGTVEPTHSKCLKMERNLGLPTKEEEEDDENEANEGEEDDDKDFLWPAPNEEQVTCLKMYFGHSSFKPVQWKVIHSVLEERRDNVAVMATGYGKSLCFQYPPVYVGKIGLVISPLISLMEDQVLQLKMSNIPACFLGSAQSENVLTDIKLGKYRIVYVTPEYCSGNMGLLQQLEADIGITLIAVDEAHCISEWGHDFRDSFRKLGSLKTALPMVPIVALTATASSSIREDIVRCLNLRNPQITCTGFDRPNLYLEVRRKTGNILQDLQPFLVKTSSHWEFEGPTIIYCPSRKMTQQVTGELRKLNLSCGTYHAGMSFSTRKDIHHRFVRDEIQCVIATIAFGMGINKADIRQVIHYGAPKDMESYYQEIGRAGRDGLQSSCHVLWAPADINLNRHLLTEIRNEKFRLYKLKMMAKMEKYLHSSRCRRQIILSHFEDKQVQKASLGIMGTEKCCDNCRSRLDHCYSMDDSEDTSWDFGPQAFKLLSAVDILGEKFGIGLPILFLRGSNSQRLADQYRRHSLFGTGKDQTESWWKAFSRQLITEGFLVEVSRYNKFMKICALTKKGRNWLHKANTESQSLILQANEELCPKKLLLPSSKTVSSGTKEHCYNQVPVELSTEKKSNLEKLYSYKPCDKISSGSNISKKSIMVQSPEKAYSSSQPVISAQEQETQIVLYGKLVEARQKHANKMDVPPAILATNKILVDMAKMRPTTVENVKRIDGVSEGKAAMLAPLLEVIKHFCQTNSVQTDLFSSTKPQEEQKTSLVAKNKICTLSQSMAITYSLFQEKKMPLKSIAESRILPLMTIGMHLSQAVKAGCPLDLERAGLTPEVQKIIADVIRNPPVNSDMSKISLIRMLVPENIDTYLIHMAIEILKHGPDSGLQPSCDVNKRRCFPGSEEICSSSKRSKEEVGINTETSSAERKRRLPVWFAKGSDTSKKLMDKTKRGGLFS

For `Cc1nc2cc(S(=O)(=O)N(C)c3ccc([C@H]4C[C@H]5COC[C@H]5[C@@H](C(=O)Nc5ccc(C(F)(F)F)cc5F)[C@@H]4C(=O)O)cc3)ccc2n1C` (stereo in doubt) [Example 392, rel-(3aR,4R,5R,6S,7aR)-4-((2-fluoro-4-(trifluoromethyl)phenyl)carbamoyl)-6-(4-((N,1,2-trimethyl-1H-benzo[d]imidazole)-5-sulfonamido)phenyl)octahydroisobenzofuran-5-carboxylic acid], the figures for the CC50 in data set [1] (setting [5]), in data set [1] (setting [6]) and in data set [2] were 251 nM, 251 nM and 25.1 nM, respectively. Besides, the IC50 in data set [3] was 1.58 nM. Moreover, the fraction unbound at 4 h, 1 µM in data set [4] turned out to be 0.0993.
With `O=C(O)[C@@H]1[C@@H](c2ccc(-c3cnsc3)cc2)CCC[C@H]1C(=O)Nc1ccc(C(F)(F)F)cc1F` [Example 16, (1R,2R,6S)-2-((2-fluoro-4-(trifluoromethyl)phenyl)carbamoyl)-6-(4-(isothiazol-4-yl)phenyl)cyclohexane-1-carboxylic acid], the CC50 in data set [1] (setting [5]) was 3980 nM; in data set [1] (setting [6]), 3980 nM; in data set [2] it was 200 nM. Further, the IC50 in data set [3] was 3.98 nM. Also, the fraction unbound at 4 h, 1 µM in data set [4] was found to be 0.0499.
With `CN(c1ccc([C@H]2CCC[C@@H](C(=O)Nc3ccc(C(F)(F)F)cc3F)[C@@H]2C(=O)O)cc1)S(=O)(=O)c1cc(I)c2occc2c1` [Example 94, (1R,2R,6S)-2-((2-fluoro-4-(trifluoromethyl)phenyl)carbamoyl)-6-(4-((7-iodo-N-methylbenzofuran)-5-sulfonamido)phenyl)cyclohexane-1-carboxylic acid], the CC50 in data set [1] (setting [6]) is 3980 nM; in data set [2], 5.62 nM. The “SW48 pCC50” value in data set [1] (SW48 cell viability, 120 hours incubation, Table 2) was 5.4. Besides, in data set [3], the IC50 was 50.1 nM. The fraction unbound at 4 h, 1 µM in data set [4] was 0.0014.
Regarding `CN(C)Cc1cccc(S(=O)(=O)N(C)c2ccc([C@H]3CCC[C@@H](C(=O)Nc4ccc(C(F)(F)F)cc4F)[C@@H]3C(=O)O)cc2)c1` [Example 97], the CC50 in data set [1] (setting [5]) was 1000 nM; in data set [1] (setting [6]), 1000 nM; in data set [2], 240 nM. Also, in data set [3], the IC50 was 2 nM. Also, the fraction unbound at 4 h, 1 µM in data set [4] worked out at 0.241.
With `CN(c1ccc([C@H]2CCC[C@@H](C(=O)Nc3ccc(C(F)(F)F)cc3F)[C@@H]2C(=O)O)cc1)S(=O)(=O)c1ccc2scnc2c1` [Example 101, (1R,2R,6S)-2-((2-fluoro-4-(trifluoromethyl)phenyl)carbamoyl)-6-(4-(N-methylbenzo[d]thiazole-5-sulfonamido)phenyl)cyclohexane-1-carboxylic acid], the figures for the CC50 in data set [1] (setting [5]), in data set [1] (setting [6]) and in data set [2] were 1260 nM, 1260 nM and 43.7 nM, respectively. Besides, the IC50 in data set [3] is 5.01 nM. For the same molecule, the fraction unbound at 4 h, 1 µM in data set [4] was determined as 0.0349.
For `CN(c1ccc([C@H]2CCC[C@@H](C(=O)Nc3ccc(C(F)(F)F)cc3F)[C@@H]2C(=O)O)cc1)S(=O)(=O)c1ccc2c(ccn2C)c1` [Example 107, (1R,2S,6R)-2-(4-((N, 1-dimethyl-1H-indole)-5-sulfonamido)phenyl)-6-((2-fluoro-4-(trifluoromethyl)phenyl)carbamoyl)cyclohexane-1-carboxylic acid], the CC50 in data set [1] (setting [5]) was 794 nM; in data set [1] (setting [6]), 794 nM; in data set [2], 19.5 nM. In addition, the IC50 in data set [3] was 5.01 nM. Further, in data set [4], the fraction unbound at 4 h, 1 µM was determined as 0.0245.
On to `CN(c1ccc([C@H]2CCC[C@@H](C(=O)Nc3ccc(C(F)(F)F)cc3F)[C@@H]2C(=O)O)cc1)S(=O)(=O)c1ccccc1` [Example 109, (1R,2R,6S)-2-((2-fluoro-4-(trifluoromethyl)phenyl)carbamoyl)-6-(4-(N-methylphenylsulfonamido)phenyl)cyclohexane-1-carboxylic acid], for which the CC50 in data set [1] (setting [5]) was 1260 nM; in data set [1] (setting [6]), 1260 nM; in data set [2] it was 105 nM. Besides, the IC50 in data set [3] is 1 nM. In addition, the fraction unbound at 4 h, 1 µM in data set [4] was 0.0829.
`CN(c1ccc([C@H]2CCC[C@@H](C(=O)Nc3ccc(C(F)(F)F)cc3F)[C@@H]2C(=O)O)cc1)S(=O)(=O)c1ccc2ccn(C)c2c1` [Example 110, (1R,2S,6R)-2-(4-((N,1-dimethyl-1H-indole)-6-sulfonamido)phenyl)-6-((2-fluoro-4-(trifluoromethyl)phenyl)carbamoyl)cyclohexane-1-carboxylic acid]: the CC50 in data set [1] (setting [5]) is 1260 nM; in data set [1] (setting [6]), 1260 nM; in data set [2] it was 10.7 nM. The IC50 in data set [3] was 3.98 nM. Moreover, in data set [4], the fraction unbound at 4 h, 1 µM came to 0.0085.
As to `CN(c1ccc([C@H]2CCC[C@@H](C(=O)Nc3ccc(C(F)(F)F)cc3F)[C@@H]2C(=O)O)cc1)S(=O)(=O)c1ccc2c(c1)OCC2` [Example 112, (1R,2R,6S)-2-((2-fluoro-4-(trifluoromethyl)phenyl)carbamoyl)-6-(4-((N-methyl-2,3-dihydrobenzofuran)-6-sulfonamido)phenyl)cyclohexane-1-carboxylic acid], the CC50 in data set [1] (setting [5]) is 794 nM; in data set [1] (setting [6]), 794 nM; in data set [2], 32.4 nM. For the same molecule, the IC50 in data set [3] is 2.51 nM. For the same molecule, the fraction unbound at 4 h, 1 µM in data set [4] worked out at 0.0405.
Regarding `CN(c1ccc([C@H]2CCC[C@@H](C(=O)Nc3ccc(C(F)(F)F)cc3F)[C@@H]2C(=O)O)cc1)S(=O)(=O)c1cccc(C2CNC(=O)C2)c1` (stereo partly drawn) [Example 113, (1R,2R,6S)-2-((2-fluoro-4-(trifluoromethyl)phenyl)carbamoyl)-6-(4-((N-methyl-3-(5-oxopyrrolidin-3-yl)phenyl)sulfonamido)phenyl)cyclohexane-1-carboxylic acid], the CC50 was 631 nM in data set [1] (setting [5]), 631 nM in data set [1] (setting [6]) and 56.2 nM in data set [2]. The IC50 in data set [3] is 1.58 nM. Besides, in data set [4], the fraction unbound at 4 h, 1 µM was found to be 0.0899.
For the molecule `CN1CCC[C@@H](c2cccc(S(=O)(=O)N(C)c3ccc([C@H]4CCC[C@@H](C(=O)Nc5ccc(C(F)(F)F)cc5F)[C@@H]4C(=O)O)cc3)c2)C1` [Example 116, (1R,2R,6S)-2-((2-fluoro-4-(trifluoromethyl)phenyl)carbamoyl)-6-(4-((N-methyl-3-((S)-1-methylpiperidin-3-yl)phenyl)sulfonamido)phenyl)cyclohexane-1-carboxylic acid], the CC50 in data set [1] (setting [5]) is 501 nM; in data set [1] (setting [6]) it was 501 nM; in data set [2], 145 nM. Moreover, the IC50 in data set [3] was 1.58 nM. Also, the fraction unbound at 4 h, 1 µM in data set [4] turned out to be 0.286.
For the molecule `CN(c1ccc([C@H]2CCC[C@@H](C(=O)Nc3ccc(C(F)(F)F)cc3F)[C@@H]2C(=O)O)cc1)S(=O)(=O)c1cccc(C(=O)N2CCOCC2)c1` [Example 119, (1R,2R,6S)-2-((2-fluoro-4-(trifluoromethyl)phenyl)carbamoyl)-6-(4-((N-methyl-3-(morpholine-4-carbonyl)phenyl)sulfonamido)phenyl)cyclohexane-1-carboxylic acid], the results for the CC50 in data set [1] (setting [5]), in data set [1] (setting [6]) and in data set [2] were 1000 nM, 1000 nM and 229 nM, respectively. Moreover, the IC50 in data set [3] is 1.58 nM. Further, the fraction unbound at 4 h, 1 µM in data set [4] is 0.231.
As for `CN(c1ccc([C@H]2CCC[C@@H](C(=O)Nc3ccc(C(F)(F)F)cc3F)[C@@H]2C(=O)O)cc1)S(=O)(=O)c1cccc(C2CC2(F)F)c1` (stereo partly drawn) [Example 120, (1R,2S,6R)-2-(4-((3-(2,2-difluorocyclopropyl)-N-methylphenyl)sulfonamido)phenyl)-6-((2-fluoro-4-(trifluoromethyl)phenyl)carbamoyl)cyclohexane-1-carboxylic acid], the CC50 is 3160 nM in data set [1] (setting [5]), 3160 nM in data set [1] (setting [6]) and 33.9 nM in data set [2]. In data set [3], the IC50 is 10 nM. Besides, the fraction unbound at 4 h, 1 µM in data set [4] was determined as 0.0107.
As to `CN(C)c1nc2cc(S(=O)(=O)N(C)c3ccc([C@H]4CCC[C@@H](C(=O)Nc5ccc(C(F)(F)F)cc5F)[C@@H]4C(=O)O)cc3)ccc2n1C` [Example 121, (1R,2S,6R)-2-(4-((2-(dimethylamino)-N, 1-dimethyl-1H-benzo[d]imidazole)-5-sulfonamido)phenyl)-6-((2-fluoro-4-(trifluoromethyl)phenyl)carbamoyl)cyclohexane-1-carboxylic acid], the values for the CC50 in data set [1] (setting [5]), in data set [1] (setting [6]) and in data set [2] were 316 nM, 316 nM and 6.17 nM, respectively. Moreover, the IC50 in data set [3] is 3.16 nM. The fraction unbound at 4 h, 1 µM in data set [4] was 0.0195.
Regarding `CN1CCOc2ccc(S(=O)(=O)N(C)c3ccc([C@H]4CCC[C@@H](C(=O)Nc5ccc(C(F)(F)F)cc5F)[C@@H]4C(=O)O)cc3)cc21` [Example 122, (1R,2S,6R)-2-(4-((N,4-dimethyl-3,4-dihydro-2H-benzo[b][1,4]oxazine)-6-sulfonamido)phenyl)-6-((2-fluoro-4-cyclohe(trifluoromethyl)phenyl)carbamoyl)xane-1-carboxylic acid], the values for the CC50 in data set [1] (setting [5]), in data set [1] (setting [6]) and in data set [2] were 1000 nM, 1000 nM and 5.62 nM, respectively. For the same molecule, the IC50 in data set [3] was 7.94 nM. The fraction unbound at 4 h, 1 µM in data set [4] amounted to 0.0056.
